# Experimental data published in patent US4698329A, “New renin-inhibitory peptides and their use” (Sankyo Company, Limited, priority 1984, dated 1987).
# Square brackets hold non-standard residues; d marks the D form. Peptide text beside a SMILES is read from it. * marks the point of attachment. 1Nal = N[C@@H](Cc1cccc2ccccc12)C(=O)O; Sta = CC(C)C[C@H](N)[C@@H](O)CC(=O)O; Cbz = O=C(OCc1ccccc1)*; NHBu = CCCCN*; NHNH2 = NN*
# Target: T1, human renin (Homo sapiens, UniProt P00797)
# T1 sequence (P00797 67-406): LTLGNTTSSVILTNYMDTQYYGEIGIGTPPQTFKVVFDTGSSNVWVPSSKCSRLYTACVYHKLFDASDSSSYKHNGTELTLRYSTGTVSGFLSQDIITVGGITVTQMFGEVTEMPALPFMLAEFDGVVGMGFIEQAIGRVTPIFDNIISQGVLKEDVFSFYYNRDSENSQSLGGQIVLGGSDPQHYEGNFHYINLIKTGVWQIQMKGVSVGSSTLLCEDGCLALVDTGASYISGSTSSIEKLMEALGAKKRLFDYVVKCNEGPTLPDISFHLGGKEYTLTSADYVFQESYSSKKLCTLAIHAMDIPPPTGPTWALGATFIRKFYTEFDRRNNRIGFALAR
# Experiment: Inhibition of renin activity (human renin, sheep angiotensinogen)
# Assay type: biochemical
# Settings: concentration of test cpd. 1 × 10^-5 M, pH 7.3, 10 minutes at 37° C., mean of 3 or 4 experiments
# Protocol: The ability of various compounds of the invention to inhibit the activity of renin was determined according to the following method, which follows essentially the procedure of Kokubu et al. [Hypertension, 5, 191-197 (1983)].
# Specifically, each test compound was dissolved in 60% v/v aqueous ethanol. Human renin activity in the presence and absence of each compound was measured using sheep angiotensinogen. The total volume of 1 ml of assay mixture contained 0.1 mole/liter phosphate buffer (pH 7.3), human renin (equivalent to 0.5 ng angiotensin I per ml per minute), sheep angiotensinogen (equivalent to 200 ng angiotensin I), the indicated concentration of the test compound, 6% ethanol and angiotensinase inhibitors (10 mmole/liter sodium ethylenediaminetetraacetate and 3.4 mmole/liter 8-hydroxyquinoline). The mixture was allowed to react for 10 minutes at 37° C., and then the reaction was stopped by placing the reaction tube in a boiling water bath for 5 minutes. The mixture was then centrifuged and the supernatant (0.05-0.1 ml) was used to assay remaining angiotensin I.
# An identical experiment was carried out, as a control, except that the test compound was omitted. From the values obtained were calculated the % inhibition of renin activity achieved by each test compound. The results are shown in the following Table, in which the compounds of the invention are identified by the numbers assigned to them in the foregoing list. The values given are the mean of 3 or 4 experiments.
row,SMILES,% Inhibition (human renin)
1,"CCNC(=O)C[C@H](O)[C@H](CC(C)C)NC(=O)[C@H](Cc1c[nH]cn1)NC(=O)[C@H](Cc1cccc2ccccc12)NC(=O)OCc1ccccc1 [Compound 66, 4(S)-[N-benzyloxycarbonyl-3-(1-naphthyl)-L-alanyl-L-histidyl]amino-N-ethyl-3(S)-hydroxy-6-methylheptanamide] (Cbz-[1Nal]-His-[Sta]-NHEt)",96%
2,"CC(C)C[C@H](NC(=O)[C@H](Cc1c[nH]cn1)NC(=O)[C@H](Cc1cccc2ccccc12)NC(=O)OCc1ccccc1)[C@@H](O)CC(=O)NNC(=O)CCCc1ccccc1 [Compound 39, N^1 -{4(S)-[N-benzyloxycarbonyl-3-(1-naphthyl)-L-alanyl-L-histidyl]amino-3(S)-hydroxy-6-methylheptanoyl}-N^2-(4-phenylbutyryl)hydrazine]",84%
3,"CC(C)C[C@H](NC(=O)[C@H](Cc1c[nH]cn1)NC(=O)[C@H](Cc1cccc2ccccc12)NC(=O)OCc1ccccc1)[C@@H](O)CC(=O)NN [Compound 38, 4(S)-[N-benzyloxycarbonyl-3-(1-naphthyl)-L-alanyl-L-histidyl]amino-3(S)-hydroxy-6-methylheptanoic acid hydrazide] (Cbz-[1Nal]-His-[Sta]-NHNH2)",89%
4,"CCCCNC(=O)C[C@H](O)[C@H](CC(C)C)NC(=O)[C@H](Cc1c[nH]cn1)NC(=O)[C@H](Cc1cccc2ccccc12)NC(=O)OCc1ccccc1 [Compound 64, 4(S)-[N-benzyloxycarbonyl-3-(1-naphthyl)-L-alanyl-L-histidyl]amino-N-butyl-3(S)-hydroxy-6-methylheptanamide] (Cbz-[1Nal]-His-[Sta]-NHBu)",95%
5,"COC(=O)[C@@H](O)[C@H](CC(C)C)NC(=O)[C@H](Cc1c[nH]cn1)NC(=O)[C@H](Cc1cccc2ccccc12)NC(=O)OCc1ccccc1 [Compound 62, methyl 3(S)-[N-benzyloxycarbonyl-3-(1-naphthyl)-L-alanyl-L-histidyl]amino-2(S)-hydroxy-5-methylhexanoate]",53%
6,"CCC(C)CNC(=O)C[C@H](O)[C@H](CC(C)C)NC(=O)[C@@H](Cc1c[nH]cn1)NC(=O)[C@H](Cc1cccc2ccccc12)NC(=O)OCc1ccccc1 (stereo partly drawn) [Compound 93, 4(S)-[N-benzyloxycarbonyl-3-(1-naphthyl)-L-alanyl-D-histidyl]amino-3(S)-hydroxy-6-methyl-N-(2-methylbutyl)heptanamide]",99%
7,"CCOC(=O)C[C@H](O)[C@H](CC(C)C)NC(=O)[C@H](Cc1c[nH]cn1)NC(=O)[C@H](Cc1cccc2ccccc12)NC(=O)OCc1ccccc1 [Compound 5, ethyl 4(S)-[N-benzyloxycarbonyl-3-(1-naphthyl)-L-alanyl-L-histidyl]amino-3(S)-hydroxy-6-methylheptanoate] (Cbz-[1Nal]-His-[Sta]-OEt)",79%
8,"CC(C)C[C@H](NC(=O)[C@H](Cc1c[nH]cn1)NC(=O)[C@H](Cc1cccc2ccccc12)NC(=O)OCc1ccccc1)[C@@H](O)CC(=O)O [Compound 3, 4(S)-[N-benzyloxycarbonyl-3-(1-naphthyl)-L-alanyl-L-histidyl]amino-3(S)-hydroxy-6-methylheptanoic acid] (Cbz-[1Nal]-His-[Sta]-OH)",72%
9,"CC[C@H](C)CNC(=O)C[C@H](O)[C@H](CC(C)C)NC(=O)[C@H](Cc1c[nH]cn1)NC(=O)[C@H](Cc1cccc2ccccc12)NC(=O)OCc1ccccc1 [Compound 65, 4(S)-[N-benzyloxycarbonyl-3-(1-naphthyl)-L-alanyl-L-histidyl]amino-3(S)-hydroxy-6-methyl-N-[S-(-)-2-methylbutyl]heptanamide]",99%
10,"CC(C)C[C@H](NC(=O)[C@H](Cc1c[nH]cn1)NC(=O)[C@H](Cc1cccc2ccccc12)NC(=O)OCc1ccccc1)[C@@H](O)CC(=O)N1CCC(c2ccccc2)CC1 [Compound 36, 1-{4(S)-[N-benzyloxycarbonyl-3-(1-naphthyl)-L-alanyl-L-histidyl]amino-3(S)-hydroxy-6-methylheptanoyl}-4-phenylpiperidine]",84%
11,"CC[C@H](C)[C@@H](CO)NC(=O)C[C@H](O)[C@H](CC(C)C)NC(=O)[C@H](Cc1c[nH]cn1)NC(=O)[C@H](Cc1cccc2ccccc12)NC(=O)OCc1ccccc1 [Compound 67, N-{4(S)-[N-benzyloxycarbonyl-3-(1-naphthyl)-L-alanyl-L-histidyl]amino-3(S)-hydroxy-6-methylheptanoyl}-L-isoleucinol]",98%

# Same assay, conditions: concentration of test cpd. 1 × 10^-6 M, pH 7.3, 10 minutes at 37° C., mean of 3 or 4 experiments
row,SMILES,% Inhibition (human renin)
1,"CC[C@H](C)[C@@H](CO)NC(=O)C[C@H](O)[C@H](CC(C)C)NC(=O)[C@H](CC(C)C)NC(=O)[C@H](Cc1cccc2ccccc12)NC(=O)OCc1ccccc1 [Compound 208, N-{4(S)-[N-benzyloxycarbonyl-3-(1-naphthyl)-L-alanyl-L-leucyl]amino-3(S)-hydroxy-6-methylheptanoyl}-L-isoleucinol]",99.1%
2,"CCC(C)CNC(=O)C[C@H](O)[C@H](CC(C)C)NC(=O)[C@H](CC(C)C)NC(=O)[C@H](Cc1cccc2ccccc12)NC(=O)OCc1ccccc1 (stereo partly drawn) [Compound 207, N-(2-methylbutyl)-4(S)-[N-benzyloxycarbonyl-3-(1-naphthyl)-L-alanyl-L-leucyl]amino-3(S)-hydroxy-6-methylheptanamide]",98.4%
3,"CCC(C)CNC(=O)C[C@H](O)[C@H](CC(C)C)NC(=O)C(Cc1cscn1)NC(=O)[C@H](Cc1cccc2ccccc12)NC(=O)OCc1ccccc1 (mixture of isomers) [Compound 238, N-(2-methylbutyl)-4(S)-[N-benzyloxycarbonyl-3-(1-naphthyl)-L-alanyl-3-(1,3-thiazol-4-yl)-DL-alanyl]amino-3(S)-hydroxy-6-methylheptanamide]",98.2%
